Measured values published in article PMC6068598 (ACS Omega, 2018).
Each block holds one compound with its values, some of them ahead of it.

Tests used:
[1] = system: monoamino oxidase A; conditions: cited from earlier work
[2] = molecular target: hTau-441 fibrils (Homo sapiens, UniProt P10636); assay: Inhibition of [3H]astemizole binding to synthetic hTau-441 fibrils
[3] = system: monoamino oxidase B; conditions: no reference given; cited from earlier work
[4] = First-in-man PET brain uptake in healthy volunteers; conditions: for peak uptake, whole brain: initial perfusion phase, 1 min p.i., i.v. bolus, healthy volunteers
[5] = imidazolyl sulfoxide moiety; cited from earlier work

Sequence of hTau-441 fibrils (P10636 1-441 isoform P10636-8): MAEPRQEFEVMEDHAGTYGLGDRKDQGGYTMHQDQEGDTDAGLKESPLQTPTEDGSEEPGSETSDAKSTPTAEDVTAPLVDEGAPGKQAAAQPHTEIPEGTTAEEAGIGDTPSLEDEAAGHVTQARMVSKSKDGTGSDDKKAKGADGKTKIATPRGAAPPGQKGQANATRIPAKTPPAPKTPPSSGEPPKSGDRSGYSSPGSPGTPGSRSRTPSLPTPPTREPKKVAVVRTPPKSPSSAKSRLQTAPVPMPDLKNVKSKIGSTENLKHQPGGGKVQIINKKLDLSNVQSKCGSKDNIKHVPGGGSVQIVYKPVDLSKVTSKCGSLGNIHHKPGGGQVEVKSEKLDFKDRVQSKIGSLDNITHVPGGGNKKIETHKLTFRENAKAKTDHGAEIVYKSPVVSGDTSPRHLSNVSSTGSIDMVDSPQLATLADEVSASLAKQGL

Structure (SMILES): [18F]c1ccc(-c2ccc3c(c2)[nH]c2ccncc23)cn1 [[^18F]T807]
affinity to monoamino oxidase A [1]: high affinity

Structure (SMILES): CNc1ccc(-c2ccc3cc(OC[C@H](O)C[18F])ccc3n2)cn1 [[^18F]THK-5351]
affinity for monoamino oxidase B [3]: high affinity

The next lines start with results.

htau fibril binding result [2]: very high affinity
Structure (SMILES): Cc1c(OCCF)ccnc1C[S+]([O-])c1nc2ccccc2n1C (centres unmarked) [11t, 2-(((4-(2-Fluoroethoxy)-3-methylpyridin-2-yl)methyl)sulfinyl)-1-methyl-1H-benzoimidazole]

radioactivity concentration in brain at 10 min ([4]; 10 min): about 3.0 % of the injected dose
radioactivity concentration in brain at 27 min ([4]; 27 min): ~2.0 % of the injected dose
radioactivity concentration in brain at 90 min ([4]; 90 min): ~1.3 % of the injected dose
peak uptake, whole brain [4]: 5.0–6.0 % i.D.
Structure (SMILES): Cc1c(OCC(F)(F)[18F])ccnc1C[S+]([O-])c1nc2ccccc2n1C (centres unmarked) [[^18F]2]

whole brain activity at 2 min p.i. ([4]; 2 min p.i.): less than 1.0 % i.D.
whole brain activity after 90 min ([4]; after 90 min): below 0.5%
peak uptake, whole brain [4]: 2.5–3.5 % i.D.
Structure (SMILES): Cc1c(OCC(F)(F)[18F])ccnc1C[S+]([O-])c1nc2ccccc2[nH]1 (centres unmarked) [[^18F]1, [^18F]lansoprazole]
pKa (N–H-acidity) [5]: ~4
